Experimental data from patent US20070190188A1, “Controlling Toxicity of Aminoquinoline Compounds” (The University of Mississippi, priority 2005, published 2007).

Legend:
CYP 2C19 = molecular target: T1, CYP 2C19 (Homo sapiens, UniProt P33261); experiment: Methemoglobinemic metabolite formation with Baculosomes, CYP 2C19; type: cell-based; details: mean ± S.D. of four
T1 construct: purchased; host or cells: insect cells infected with recombinant baculovirus

CYP 3A4 = molecular target: T2, CYP 3A4 (Homo sapiens, UniProt P08684); experiment: Methemoglobinemic metabolite formation with Baculosomes, CYP 3A4; type: cell-based
T2 construct: purchased; host or cells: insect cells infected with recombinant baculovirus

[1] = system: individual human liver microsomes (HLM)
Method: In one aspect of the present invention, an in vitro assay is developed for evaluation of biotransformation reactions leading to generation of methemoglobinemic metabolites of 8-aminoquinolines. This method uses simultaneous incubation of a test compound with the hepatic microsomes or Baculosomes® (microsomes prepared from insect cells infected with recombinant baculovirus containing a cDNA insert for a specific human P450 isozyme and NADPH-P450 reductase) and human erythrocytes followed by determination of methemoglobin formation. This allows the unstable metabolites generated in situ to react with the human erythrocytes.
For Correlation analysis six different lots of individual human liver microsomes (HLM) were obtained from BD biosciences (www.gentest.com ) with good variations in CYP3A4 activity (Testosterone 6β-hydroxylase activity ranging from 700-12,000 pmol/mg protein). […] Donor information, genotypes, immunoquantitation was provided along with the characterization table, with different cytochrome P450 assays conducted with NADPH regenerating system, MgCl2 and 0.1M potassium phosphate buffer.

Mouse Liver Microsomes = experiment: In vitro formation of methemoglobinemic metabolites with mouse liver microsomes and human erythrocytes; type: cell-based
CYP 2E1 = molecular target: T3, CYP 2E1 (Homo sapiens, UniProt P05181); experiment: Methemoglobinemic metabolite formation with Baculosomes, CYP 2E1; type: cell-based; details: mean ± S.D. of four
T3 construct: purchased; host or cells: insect cells infected with recombinant baculovirus

CYP 2D6 = molecular target: T4, CYP 2D6 (Homo sapiens, UniProt P10635); experiment: Methemoglobinemic metabolite formation with Baculosomes, CYP 2D6; type: cell-based; details: mean ± S.D. of four
T4 construct: purchased; host or cells: insect cells infected with recombinant baculovirus

human erythrocytes = experiment: In vitro methemoglobin formation, human erythrocytes, control without microsomes; type: cell-based
Plasmodium berghei = experiment: In vivo antimalarial evaluation in Plasmodium berghei-mouse malaria model
Source text: One concern with this method of controlling 8-aminoquinoline toxicity is that the inhibition metabolism of the drug may impair its antiparasitic efficacy. […] Thus treatment of the individuals with NPC1161B along with an inhibitor of CYP3A4 should not compromise the therapeutic efficiency of NPC1161B.

T2 sequence (P08684 2-503 limits assumed): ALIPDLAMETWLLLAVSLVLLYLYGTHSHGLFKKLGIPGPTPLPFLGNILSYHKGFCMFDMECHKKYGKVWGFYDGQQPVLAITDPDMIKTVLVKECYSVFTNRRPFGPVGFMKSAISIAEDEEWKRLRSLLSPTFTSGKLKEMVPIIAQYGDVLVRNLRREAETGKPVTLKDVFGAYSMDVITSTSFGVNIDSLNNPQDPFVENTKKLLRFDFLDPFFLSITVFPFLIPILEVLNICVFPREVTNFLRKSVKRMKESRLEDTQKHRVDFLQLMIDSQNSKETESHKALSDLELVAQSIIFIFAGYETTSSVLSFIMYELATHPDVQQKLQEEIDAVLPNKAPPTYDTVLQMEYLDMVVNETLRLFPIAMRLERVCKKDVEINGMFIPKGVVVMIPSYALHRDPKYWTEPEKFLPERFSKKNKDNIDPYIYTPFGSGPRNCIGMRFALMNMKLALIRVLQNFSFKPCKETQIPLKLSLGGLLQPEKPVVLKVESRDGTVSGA
T4 sequence (P10635 whole entry): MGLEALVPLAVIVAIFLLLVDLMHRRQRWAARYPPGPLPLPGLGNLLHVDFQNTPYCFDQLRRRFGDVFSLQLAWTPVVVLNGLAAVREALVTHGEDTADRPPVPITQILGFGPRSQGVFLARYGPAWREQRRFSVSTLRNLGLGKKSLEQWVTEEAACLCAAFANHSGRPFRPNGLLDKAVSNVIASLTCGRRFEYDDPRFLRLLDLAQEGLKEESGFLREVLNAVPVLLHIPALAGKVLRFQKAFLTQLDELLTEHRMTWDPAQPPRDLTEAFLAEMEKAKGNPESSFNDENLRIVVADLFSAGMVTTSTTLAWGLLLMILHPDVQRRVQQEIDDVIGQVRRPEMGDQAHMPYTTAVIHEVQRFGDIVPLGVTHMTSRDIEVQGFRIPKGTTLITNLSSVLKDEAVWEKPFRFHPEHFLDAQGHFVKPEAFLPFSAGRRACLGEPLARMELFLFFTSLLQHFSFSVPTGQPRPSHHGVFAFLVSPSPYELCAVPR
T1 sequence (P33261 whole entry): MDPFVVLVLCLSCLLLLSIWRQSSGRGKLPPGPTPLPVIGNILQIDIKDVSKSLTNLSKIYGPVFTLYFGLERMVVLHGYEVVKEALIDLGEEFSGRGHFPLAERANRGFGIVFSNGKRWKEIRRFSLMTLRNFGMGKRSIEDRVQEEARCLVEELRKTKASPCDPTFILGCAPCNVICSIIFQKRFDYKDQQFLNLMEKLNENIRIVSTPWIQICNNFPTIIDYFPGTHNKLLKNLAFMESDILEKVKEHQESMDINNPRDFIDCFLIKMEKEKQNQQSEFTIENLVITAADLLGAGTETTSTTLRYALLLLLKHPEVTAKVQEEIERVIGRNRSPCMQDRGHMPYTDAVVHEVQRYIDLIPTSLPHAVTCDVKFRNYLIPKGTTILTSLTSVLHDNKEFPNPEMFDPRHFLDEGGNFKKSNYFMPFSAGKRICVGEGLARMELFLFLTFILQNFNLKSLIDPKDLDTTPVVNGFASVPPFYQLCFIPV
T3 sequence (P05181 whole entry): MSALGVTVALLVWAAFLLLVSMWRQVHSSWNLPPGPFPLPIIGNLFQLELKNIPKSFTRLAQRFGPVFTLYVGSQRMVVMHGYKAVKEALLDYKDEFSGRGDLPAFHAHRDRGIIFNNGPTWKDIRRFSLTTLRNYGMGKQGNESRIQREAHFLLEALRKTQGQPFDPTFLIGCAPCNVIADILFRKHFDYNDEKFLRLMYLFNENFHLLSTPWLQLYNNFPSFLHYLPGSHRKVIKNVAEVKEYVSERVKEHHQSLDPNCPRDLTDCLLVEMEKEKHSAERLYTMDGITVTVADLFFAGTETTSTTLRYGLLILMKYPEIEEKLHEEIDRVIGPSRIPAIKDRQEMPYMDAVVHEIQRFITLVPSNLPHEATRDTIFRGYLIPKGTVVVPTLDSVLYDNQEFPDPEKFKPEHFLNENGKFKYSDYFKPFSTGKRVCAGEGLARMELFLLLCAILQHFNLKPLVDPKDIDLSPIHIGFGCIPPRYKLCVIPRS

COc1cc(N[C@H](C)CCCN)c2nccc(C)c2c1Oc1ccc(Cl)c(Cl)c1 [NPC1161B] was tested, and the “% methemoglobin formed, CYP 2C19” value (CYP 2C19) was 3.870 ± 0.577%, the “% methemoglobin formed, Cimetidine” value (CYP 3A4; 3A4 Baculosomes, 8-aminoquinoline 100 μM with Cimetidine 100 μM) was 8.567 ± 0.600% and the “% methemoglobin formed, Erythromycin” value (CYP 3A4; 3A4 Baculosomes, 8-aminoquinoline 100 μM with Erythromycin 100 μM) was 11.655 ± 1.818%. For the same compound, the “% methemoglobin formed, Ketoconazole” value (CYP 3A4; 3A4 Baculosomes, 8-aminoquinoline 100 μM with Ketoconazole 100 μM) was 9.615 ± 1.552%, the “% methemoglobin formed, Troleandomycin” value (CYP 3A4; 3A4 Baculosomes, 8-aminoquinoline 100 μM with Troleandomycin 100 μM) was 2.785 ± 0.628% and the “% methemoglobin formed, inhibitor None” value (CYP 3A4; 3A4 Baculosomes, 8-aminoquinoline 100 μM, no inhibitor) was 18.185 ± 2.809%. The “% methemoglobin formed, CYP 3A4” value (CYP 3A4; Baculosomes, mean ± S.D. of four) was 15.280 ± 1.077%, the “CYP responsible for metabolism” value (CYP 3A4; FIG. 4, Table 2) was “primarily metabolized by CYP 3A4” and the “methemoglobin toxicity generated by CYP 3A4, comparison among the three 8-aminoquinolines” value (CYP 3A4; FIG. 5) was “almost similar methemoglobin toxicity”. The “R value, linear correlation between % methemoglobin formation and CYP3A4 Content of HLM preparation” value [1] was greater than 0.9, the “correlation of methemoglobin toxicity with CYP 2D6 or CYP2E1 contents of HLM preparations” value [1] was “did not correlate” and the “formation of methemoglobenemic metabolites, Azithromycin” value (Mouse Liver Microsomes; Mouse Liver Microsomes, 8-aminoquinoline with Azithromycin) was 9.993 ± 1.306. For the same compound, the “formation of methemoglobenemic metabolites, Erythromycin” value (Mouse Liver Microsomes; Mouse Liver Microsomes, 8-aminoquinoline with Erythromycin) was 3.133 ± 0.963, the “formation of methemoglobenemic metabolites, Microsomes” value (Mouse Liver Microsomes; Mouse Liver Microsomes, no macrolide) was 11.24 ± 3.612 and the “% methemoglobin formation, Mouse Liver Microsomes” value (Mouse Liver Microsomes; drug 100 μM, microsomes equivalent to 25 pmoles cytochrome P450, Mean ± S.D. of four) was 11.240 ± 3.612%. For the same compound, the “% methemoglobin formed, CYP 2E1” value (CYP 2E1) was 3.801 ± 1.996%, the “% methemoglobin formed, CYP 2D6” value (CYP 2D6) was 5.380 ± 1.402% and the “% methemoglobin formed, Supersomes None” value (human erythrocytes; no Baculosomes, mean ± S.D. of four) was 0.980 ± 0.493%. The “% methemoglobin formation, Control” value (human erythrocytes; no microsomes, drug 100 μM, Mean ± S.D. of four observations) was 0.980 ± 0.439%, the deaths (Plasmodium berghei; NPC 1161B 0.312 mg/kg × 3 oral +TAO (i.p.)) was “nil” and the “(%) Parasitemia” value (Plasmodium berghei; NPC 1161B 0.312 mg/kg × 3 oral +TAO (i.p.), day 10 p.i., individual mice) was 0/0/0/0/0. For the same compound, the “(%) Parasitemia” value (Plasmodium berghei; NPC 1161B 0.312 mg/kg × 3 oral +TAO (i.p.), day 14 p.i., mean in brackets) was 2.83/2.04/+/5.29/0 (2.0) %, the “(%) Parasitemia” value (Plasmodium berghei; NPC 1161B 0.312 mg/kg × 3 oral +TAO (i.p.), day 21 p.i., mean in brackets) was 23.8/32.4/0/28.3/0 (16.9) % and the deaths (Plasmodium berghei; NPC 1161B 0.312 mg/kg × 3 oral, Alone) was “nil”. For the same compound, the “(%) Parasitemia” value (Plasmodium berghei; NPC 1161B 0.312 mg/kg × 3 oral, Alone, day 14 p.i., mean in brackets) was 0/5.8/0.66/0.8/1.36 (2.9) %, the “(%) Parasitemia” value (Plasmodium berghei; NPC 1161B 0.312 mg/kg × 3 oral, Alone, day 21 p.i., mean in brackets) was 11.3/53.3/19.4/6.0/17.8 (21.5) % and the deaths (Plasmodium berghei; NPC 1161B 0.625 mg/kg × 3 oral +TAO (i.p.)) was “nil”. The “(%) Parasitemia” value (Plasmodium berghei; NPC 1161B 0.625 mg/kg × 3 oral +TAO (i.p.), day 10 p.i., individual mice) was 0/0/0/0/0, the “(%) Parasitemia” value (Plasmodium berghei; NPC 1161B 0.625 mg/kg × 3 oral +TAO (i.p.), day 21 p.i., mean in brackets) was 8.4/0/10.4/18.4/1.5 (7.7) % and the deaths (Plasmodium berghei; NPC 1161B 0.625 mg/kg × 3 oral, Alone) was “nil”. For the same compound, the “(%) Parasitemia” value (Plasmodium berghei; NPC 1161B 0.625 mg/kg × 3 oral, Alone, day 7 p.i., individual mice) was 0/0/0/0/0, the “(%) Parasitemia” value (Plasmodium berghei; NPC 1161B 0.625 mg/kg × 3 oral, Alone, day 21 p.i., mean in brackets) was 0/+/5.2/2.6/3.7 (2.3) % and the deaths (Plasmodium berghei; NPC 1161B 1.25 mg/kg × 3 oral +TAO (i.p.)) was “nil”. The “(%) Parasitemia” value (Plasmodium berghei; NPC 1161B 1.25 mg/kg × 3 oral +TAO (i.p.), day 7 p.i., individual mice) was 0/0/0/0/0, the “(%) Parasitemia” value (Plasmodium berghei; NPC 1161B 1.25 mg/kg × 3 oral +TAO (i.p.), day 10 p.i., individual mice) was 0/0/0/0/0 and the “(%) Parasitemia” value (Plasmodium berghei; NPC 1161B 1.25 mg/kg × 3 oral +TAO (i.p.), day 14 p.i., individual mice) was 0/0/0/0/0. The “(%) Parasitemia” value (Plasmodium berghei; NPC 1161B 1.25 mg/kg × 3 oral +TAO (i.p.), day 21 p.i., individual mice) was 0/0/0/0/0, the “(%) Parasitemia” value (Plasmodium berghei; NPC 1161B 1.25 mg/kg × 3 oral +TAO (i.p.), day 28 p.i., individual mice) was 0/0/0/0/0 and the deaths (Plasmodium berghei; NPC 1161B 1.25 mg/kg × 3 oral, Alone) was “nil”. For the same compound, the “(%) Parasitemia” value (Plasmodium berghei; NPC 1161B 1.25 mg/kg × 3 oral, Alone, day 7 p.i., individual mice) was 0/0/0/0/0, the “(%) Parasitemia” value (Plasmodium berghei; NPC 1161B 1.25 mg/kg × 3 oral, Alone, day 10 p.i., individual mice) was 0/0/0/0/0 and the “(%) Parasitemia” value (Plasmodium berghei; NPC 1161B 1.25 mg/kg × 3 oral, Alone, day 14 p.i., individual mice) was 0/0/0/0/0. For the same compound, the “(%) Parasitemia” value (Plasmodium berghei; NPC 1161B 1.25 mg/kg × 3 oral, Alone, day 21 p.i., individual mice) was 0/0/0/0/0, the “(%) Parasitemia” value (Plasmodium berghei; NPC 1161B 1.25 mg/kg × 3 oral, Alone, day 28 p.i., individual mice) was 0/0/0/0/0 and the deaths (Plasmodium berghei; NPC 1161B 2.5 mg/kg × 3 oral +TAO (i.p.)) was “nil”. The “(%) Parasitemia” value (Plasmodium berghei; NPC 1161B 2.5 mg/kg × 3 oral +TAO (i.p.), day 7 p.i., individual mice) was 0/0/0/0/0, the “(%) Parasitemia” value (Plasmodium berghei; NPC 1161B 2.5 mg/kg × 3 oral +TAO (i.p.), day 10 p.i., individual mice) was 0/0/0/0/0 and the “(%) Parasitemia” value (Plasmodium berghei; NPC 1161B 2.5 mg/kg × 3 oral +TAO (i.p.), day 14 p.i., individual mice) was 0/0/0/0/0. The “(%) Parasitemia” value (Plasmodium berghei; NPC 1161B 2.5 mg/kg × 3 oral +TAO (i.p.), day 21 p.i., individual mice) was 0/0/0/0/0, the “(%) Parasitemia” value (Plasmodium berghei; NPC 1161B 2.5 mg/kg × 3 oral +TAO (i.p.), day 28 p.i., individual mice) was 0/0/0/0/0 and the deaths (Plasmodium berghei; NPC 1161B 2.5 mg/kg × 3 oral, Alone) was “nil”. The “(%) Parasitemia” value (Plasmodium berghei; NPC 1161B 2.5 mg/kg × 3 oral, Alone, day 7 p.i., individual mice) was 0/0/0/0/0, the “(%) Parasitemia” value (Plasmodium berghei; NPC 1161B 2.5 mg/kg × 3 oral, Alone, day 10 p.i., individual mice) was 0/0/0/0/0 and the “(%) Parasitemia” value (Plasmodium berghei; NPC 1161B 2.5 mg/kg × 3 oral, Alone, day 14 p.i., individual mice) was 0/0/0/0/0. The “(%) Parasitemia” value (Plasmodium berghei; NPC 1161B 2.5 mg/kg × 3 oral, Alone, day 21 p.i., individual mice) was 0/0/0/0/0, the “(%) Parasitemia” value (Plasmodium berghei; NPC 1161B 2.5 mg/kg × 3 oral, Alone, day 28 p.i., individual mice) was 0/0/0/0/0 and the “effect of troleandomycin on the antimalarial property of NPC1161B” value (Plasmodium berghei; mice infected with Plasmodium berghei, Table 7) was “does not antagonize”.
